target: human wild type-CFTR (Homo sapiens, UniProt P13569); experiment: Cell-based YFP assay; set-up: expressed in transfected cells; host or cells: CHO-K1 (Chinese hamster ovary); details: CHO-K1 cells expressing human wild type-CFTR and YFP-H148Q/I152L; forskolin 20 μM = 100% activity; read-out: Cell-based YFP Assay (EC50) Concentration Range
Experimental: Forskolin (Tocris cat. #1099), Dimethyl sulfoxide (Sigma cat. #D4540), FLUO star Omega microplate reader (BMG Labtech, Ortenberg, Germany), MARS Data Analysis Software (BMG Labtech), GraphPad Prism 5 (GraphPad Software, Inc.) Chinese hamster ovary (CHO-K1) cells expressing human wild type-CFTR and halide sensor YFP-H148Q/I152L were constructed and grown in Dulbecco's modified Eagle's medium (DMEM) supplemented with 10% FBS, 2 mM glutamine, 100 units/ml penicillin and 100 μg/ml streptomycin. Chinese hamster ovary (CHO-K1) cells expressing human wild type-CFTR and halide sensor YFP-H148Q/I152L were seeded in 96-well microplate with 2×10^4 cells/well and incubated in 37° C., 48 hours. Then, each well was washed 3 times with PBS and 100 μL PBS was added in each well. […] YFP fluorescence signal affected by I^− ion influx through CFTR channel was measured in 37° C., FLUO star Omega microplate reader according to the following steps: • i) basal 2 seconds; • ii) 140 mM I^− solution 100 μL addition to each well; • iii) YFP fluorescence signal measurement start after 6 seconds; and • iv) following 14 seconds signal detection in every 0.4 seconds periods. […] Experiments were performed in triplicates and the data was averaged. EC50 values were calculated with MARS Data Analysis Software (BMG Labtech) and GraphPad Prism 5.

Sequence of human wild type-CFTR (P13569 whole entry): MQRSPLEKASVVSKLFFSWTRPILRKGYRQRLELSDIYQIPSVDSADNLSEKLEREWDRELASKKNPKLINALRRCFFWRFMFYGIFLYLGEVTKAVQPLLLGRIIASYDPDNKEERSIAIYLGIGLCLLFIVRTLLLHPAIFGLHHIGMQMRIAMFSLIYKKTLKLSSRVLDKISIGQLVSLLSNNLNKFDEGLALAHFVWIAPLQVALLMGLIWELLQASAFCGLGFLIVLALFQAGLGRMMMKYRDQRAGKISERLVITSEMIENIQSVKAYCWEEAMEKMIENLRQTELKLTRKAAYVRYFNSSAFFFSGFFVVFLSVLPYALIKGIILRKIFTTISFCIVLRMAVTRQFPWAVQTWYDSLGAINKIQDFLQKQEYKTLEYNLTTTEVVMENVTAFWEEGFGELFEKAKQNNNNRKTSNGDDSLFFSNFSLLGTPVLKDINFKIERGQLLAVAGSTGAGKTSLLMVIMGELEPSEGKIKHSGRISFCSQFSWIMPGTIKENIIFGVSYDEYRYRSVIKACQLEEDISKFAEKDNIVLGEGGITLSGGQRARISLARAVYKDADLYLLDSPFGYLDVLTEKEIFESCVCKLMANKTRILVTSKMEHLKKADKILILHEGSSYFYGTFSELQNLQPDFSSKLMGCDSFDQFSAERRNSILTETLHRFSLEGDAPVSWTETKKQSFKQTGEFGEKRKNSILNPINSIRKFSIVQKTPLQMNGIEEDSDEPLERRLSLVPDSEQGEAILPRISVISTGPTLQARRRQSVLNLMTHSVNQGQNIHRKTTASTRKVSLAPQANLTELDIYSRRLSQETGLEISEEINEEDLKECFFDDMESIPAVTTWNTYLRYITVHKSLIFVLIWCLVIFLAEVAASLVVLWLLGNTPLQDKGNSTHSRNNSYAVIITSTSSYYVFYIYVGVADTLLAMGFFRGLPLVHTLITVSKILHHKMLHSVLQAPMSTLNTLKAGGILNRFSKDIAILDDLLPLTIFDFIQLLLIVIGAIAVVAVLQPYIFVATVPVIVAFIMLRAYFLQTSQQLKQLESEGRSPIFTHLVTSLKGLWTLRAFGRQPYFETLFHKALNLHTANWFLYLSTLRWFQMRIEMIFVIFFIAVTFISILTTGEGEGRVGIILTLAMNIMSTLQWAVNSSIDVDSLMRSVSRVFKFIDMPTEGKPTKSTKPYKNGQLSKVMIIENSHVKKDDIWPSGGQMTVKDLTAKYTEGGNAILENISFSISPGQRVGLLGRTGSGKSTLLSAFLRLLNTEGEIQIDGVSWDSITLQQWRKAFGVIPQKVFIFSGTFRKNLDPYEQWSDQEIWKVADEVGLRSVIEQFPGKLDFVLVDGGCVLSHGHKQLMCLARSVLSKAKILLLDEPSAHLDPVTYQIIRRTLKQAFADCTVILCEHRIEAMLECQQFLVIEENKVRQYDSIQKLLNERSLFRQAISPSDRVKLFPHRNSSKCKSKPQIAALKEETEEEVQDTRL

EC50 [nM]	Compound
≥ 2000	CCCCCCCCCCOC(=O)c1ccc(NC(=O)c2cc3nccc(-c4ccc(OC)c(OC)c4)n3n2)cc1 [Compound 337, decyl 4-(7-(3,4-dimethoxy-phenyl)pyrazolo[1,5-a]pyrimidine-2-carboxamido)benzoate]
200 to 2000	COc1ccc(-c2ccnc3cc(C(=O)N4CCN(C(=O)c5ccccc5Cl)[C@@H](C)C4)nn23)cc1OC [Compound 260, (S)-(4-(2-chlorobenzoyl)-3-methylpiperazin-1-yl) (7-(3,4-dimethoxyphenyl)pyrazolo[1,5-a]pyrimidin-2-yl)methanone]
≥ 2000	COc1ccc(-c2ccnc3cc(C(=O)Nc4ccc(C(=O)N[C@@H](CC(=O)O)C(=O)O)cc4)nn23)cc1OC [Compound 88, (4-(7-(3,4-dimethoxyphenyl)pyrazolo[1,5-a]pyrimidine-2-carboxamido)benzoyl)-L-aspartic acid]
< 200	COc1ccc(-c2ccnc3cc(C(=O)N4CCN(C(=O)c5ccsc5)[C@@H](C)C4)nn23)cc1OC [Compound 379, (S)-(7-(3,4-dimethoxyphenyl)pyrazolo[1,5-a]pyrimidin-2-yl)(3-methyl-4-(thiophene-3-carbonyl)piperazin-1-yl)methanone]
< 200	COc1ccc(-c2ccnc3cc(C(=O)Nc4ccc(OC(=O)[C@@H](N)C(C)C)cc4)nn23)cc1OC [Compound 172, 4-(7-(3,4-dimethoxyphenyl)pyrazolo[1,5-a]pyrimidine-2-carboxamido) phenyl L-valinate]
200 to 2000	COc1ccc(-c2ccnc3cc(C(=O)N4CCc5ccc(C(=O)N6CCOCC6)cc54)nn23)cc1OC [Compound 253, (7-(3,4-dimethoxyphenyl)pyrazolo[1,5-a]pyrimidin-2-yl)(6-(morpholine-4-carbonyl)indolin-1-yl) methanone]
200 to 2000	COc1ccc(C(=O)N2CCN(C(=O)c3cc4nccc(-c5ccc(OC)c(OC)c5)n4n3)C[C@@H]2C)cc1 [Compound 319, (S)-(7-(3,4-dimethoxyphenyl)pyrazolo[1,5-a]pyrimidin-2-yl)(4-(4-methoxybenzoyl)-3-methylpiperazin-1-yl) methanone]
200 to 2000	CCOc1ccc(NC(=O)c2cc3nccc(-c4ccc(OC)cc4)n3n2)cc1 [Compound 13, N-(4-ethoxyphenyl)-7-(4-methoxyphenyl)pyrazolo [1,5-a]pyrimidine-2-carboxamide]
≥ 2000	COc1ccc(-c2ccnc3cc(C(=O)Nc4ccc(C(=O)N(C)CCN(C)C)cc4)nn23)cc1OC [Compound 219, 7-(3,4-dimethoxyphenyl)-N-(4-((2-(dimethylamino)ethyl) (methyl)carbamoyl)phenyl)pyrazolo[1,5-a] pyrimidine-2-carboxamide]
≥ 2000	COc1ccc(-c2ccnc3cc(C(=O)Nc4ccc(C(=O)O)c(Cl)c4)nn23)cc1OC [Compound 279, 2-chloro-4-(7-(3,4-dimethoxyphenyl)pyrazolo [1,5-a]pyrimidine-2-carboxamido)benzoic acid]
< 200	COCCOCOC(=O)c1ccc(NC(=O)c2cc3nccc(-c4ccc(OC)c(OC)c4)n3n2)cc1 [Compound 329, (2-methoxyethoxy)methyl 4-(7-(3,4-dimethoxyphenyl)pyrazolo [1,5-a]pyrimidine-2-carboxamido)benzoate]
≥ 2000	COc1ccc(-c2ccnc3cc(C(=O)N(C)c4ccc(C(=O)N5CCN(C)CC5)cc4)nn23)cc1OC [Compound 248, 7-(3,4-dimethoxyphenyl)-N-methyl-N-(4-(4-methylpiperazine-1-carbonyl)phenyl)pyrazolo [1,5-a]pyrimidine-2-carboxamide]
< 200	COC(=O)[C@H](CCSC)NC(=O)c1ccc(NC(=O)c2cc3nccc(-c4ccc(OC)c(OC)c4)n3n2)cc1 [Compound 59, methyl (4-(7-(3,4-dimethoxyphenyl)pyrazolo [1,5-a]pyrimidine-2-carboxamido)benzoyl)-L-methioninate]
200 to 2000	CCOC(=O)C1(NC(=O)c2cc3nccc(-c4ccc(OC)c(OC)c4)n3n2)CC1 [Compound 26, ethyl 1-(7-(3,4-dimethoxyphenyl)pyrazolo [1,5-a]pyrimidine-2-carboxamido) cyclopropane-1-carboxylate]
≥ 2000	COc1ccc(-c2ccnc3cc(C(=O)Nc4ccc(C(=O)NCCN5CCCC5)cc4)nn23)cc1OC [Compound 223, 7-(3,4-dimethoxyphenyl)-N-(4-((2-(pyrrolidin-1-yl)ethyl)carbamoyl)phenyl)pyrazolo[1,5-a]pyrimidine-2-carboxamide]
≥ 2000	COc1ccc(-c2ccnc3cc(C(=O)N[C@H]4CC[C@H](C(=O)N5CCC(N6CCCCC6)CC5)CC4)nn23)cc1OC [Compound 343, N-((1R,4R)-4-([1,4′-bipiperidine]-1′-carbonyl)cyclohexyl)-7-(3,4-dimethoxyphenyl)pyrazolo [1,5-a]pyrimidine-2-carboxamide]
≥ 2000	COc1ccc(-c2ccnc3cc(C(=O)Nc4ccc(C(=O)N5CCN(C)CC5)nc4)nn23)cc1OC [Compound 265, 7-(3,4-dimethoxyphenyl)-N-(6-(4-methylpiperazine-1-carbonyl)pyridin-3-yl)pyrazolo[1,5-a] pyrimidine-2-carboxamide]
≥ 2000	COc1ccc(-c2ccnc3cc(C(=O)N4CCNC(C)(C)C4)nn23)cc1OC [Compound 182, (7-(3,4-dimethoxyphenyl)pyrazolo[1,5-a]pyrimidin-2-yl)(3,3-dimethylpiperazin-1-yl)methanone]
< 200	COc1ccc(-c2ccnc3cc(C(=O)N4CCN(C(=O)c5ccc(C)cc5)[C@@H](C)C4)nn23)cc1OC [Compound 351, (S)-(7-(3,4-dimethoxyphenyl)pyrazolo[1,5-a]pyrimidin-2-yl)(3-methyl-4-(4-methylbenzoyl)piperazin-1-yl)methanone]
< 200	COc1ccc(-c2ccnc3cc(C(=O)N4CCN(C(=O)c5ccco5)[C@@H](C)C4)nn23)cc1OC [Compound 353, (S)-(7-(3,4-dimethoxyphenyl)pyrazolo[1,5-a]pyrimidin-2-yl)(4-(furan-2-carbonyl)-3-methylpiperazin-1-yl)methanone]
< 200	COc1ccc(-c2ccnc3cc(C(=O)Nc4ccc(C(=O)N5CCN(C)CC5)cc4C)nn23)cc1OC [Compound 128, 7-(3,4-dimethoxyphenyl)-N-(2-methyl-4-(4-methylpiperazine-1-carbonyl)phenyl)pyrazolo [1,5-a]pyrimidine-2-carboxamide]
< 200	COc1ccc(-c2ccnc3cc(C(=O)N4CCN(C(=O)c5cccnc5)[C@@H](C)C4)nn23)cc1OC [Compound 382, (S)-(7-(3,4-dimethoxy-phenyl)pyrazolo[1,5-a]pyrimidin-2-yl) (3-methyl-4-nicotinoylpiperazin-1-yl)methanone]
< 200	COc1ccc(-c2ccnc3cc(C(=O)N4CCN(C(=O)OC(C)(C)C)C(C)(C)C4)nn23)cc1OC [Compound 113, tert-butyl 4-(7-(3,4-dimethoxyphenyl)pyrazolo [1,5-a]pyrimidine-2-carbonyl)-2,2-dimethylpiperazine-1-carboxylate]
< 200	COc1ccc(-c2ccnc3cc(C(=O)Nc4ccc(N5CCN(C)CC5)cc4)nn23)cc1OC [Compound 193, 7-(3,4-dimethoxyphenyl)-N-(4-(4-methylpiperazin-1-yl)phenyl)pyrazolo[1,5-a]pyrimidine-2-carboxamide]
≥ 2000	COc1ccc(-c2ccnc3cc(C(=O)NC45CC(C(=O)N6CCN(C)CC6)(C4)C5)nn23)cc1OC [Compound 123, 7-(3,4-dimethoxyphenyl)-N-(3-(4-methylpiperazine-1-carbonyl)bicyclo[1.1.1]pentan-1-yl) pyrazolo[1,5-a]pyrimidine-2-carboxamide]
200 to 2000	COc1ccc(-c2ccnc3cc(C(=O)N4CC[C@@H](NC(=O)OC(C)(C)C)C4)nn23)cc1OC [Compound 115, tert-butyl (R)-(1-(7-(3,4-dimethoxyphenyl)pyrazolo [1,5-a]pyrimidine-2-carbonyl)pyrrolidin-3-yl)carbamate]
≥ 2000	COc1ccc(-c2ccnc3cc(C(=O)N4CCc5cc(C(=O)O)ccc54)nn23)cc1OC [Compound 231, 1-(7-(3,4-dimethoxyphenyl)pyrazolo[1,5-a]pyrimidine-2-carbonyl) indoline-5-carboxylic acid]
≥ 2000	COC(=O)c1ccc(NC(=O)c2cc3nccc(-c4ccc(OC)cc4)n3n2)cc1 [Compound 23, methyl 4-(7-(4-methoxyphenyl)pyrazolo[1,5-a]pyrimidine-2-carboxamido)benzoate]
≥ 2000	COc1ccc(-c2ccnc3cc(C(=O)N4CCN(C(=O)CO)CC4)nn23)cc1OC [Compound 90, 1-(4-(7-(3,4-dimethoxyphenyl)pyrazolo[1,5-a]pyrimidine-2-carbonyl)piperazin-1-yl)-2-hydroxyethan-1-one]
< 200	COc1ccc(-c2ccnc3cc(C(=O)Nc4ccc(C(=O)OCCN5CCN(C(=O)OC(C)(C)C)CC5)cc4)nn23)cc1OC [Compound 275, tert-butyl 4-(2-((4-(7-(3,4-dimethoxyphenyl)pyrazolo [1,5-a]pyrimidine-2-carboxamido)benzoyl)oxy)ethyl)piperazine-1-carboxylate]

— patent US20240199623A1 (ILDONG PHARMACEUTICAL CO., LTD., priority 2020, published 2024)
